The source of these data is article PMC11677692, “Analysis of Thiodiphenol in Rat Urine as a Biomarker of Exposure to Temephos” (Journal of Xenobiotics, 2024).

Several values for one entry are separate records, joined by “and”; a condition that tells them apart may be missing. Identical values can stand only once. Like-named read-outs stand apart in the source and are kept apart here.

A short description of series [1]: Enzymatic hydrolysis (β-glucuronidase/sulfatase) of urine of temephos-treated rats, HPLC-DAD. The following applies: 50 °C, 1 h, vs non-hydrolyzed urine. The class given is in vitro ADME, rat. The protocol: Temephos urinary metabolites were enzymatically deconjugated, according to Cruz-Hurtado et al., with some modifications. Briefly, 200 µL of urine and 2000 IU of β-glucuronidase/sulfatase were added to a 0.5 M sodium acetate buffer at pH 5 to reach a final volume of 1 mL. The mixture was incubated at 50 °C in a water bath for an hour. To determine the optimal concentration of deconjugated temephos metabolites in the enzymatic hydrolysis assay, the concentration of β-glucuronidase/sulfatase was assessed from 250 to 4000 IU/mL. The enzymatic reaction was stopped by adding 10 mL of methylene chloride and cooling at room temperature; the mixture was vortexed for 1 min and then centrifuged at 1600× g for 15 min at room temperature. The organic phase was collected, and another residue extraction was performed using 10 mL of diethyl ether. […] Urinary levels of temephos metabolites were adjusted by creatinine, which was determined using a commercial kit from Randox (CR510, Randox Laboratories Ltd., Crumlin, UK).
Temephos and its metabolites were analyzed by injecting urinary extracts into a liquid chromatograph equipped with a quaternary pump, autosampler, degasser, and UV-Vis Diode-Array detector (Agilent 1200, Agilent Technologies, Palo Alto, CA, USA). […] The concentrations of temephos, TDP, TDP-SO, and BPS were determined using calibration graphs of each compound. […]

Series [2] can be described thus: Urinary excretion kinetics of temephos metabolites after a single oral dose of temephos. The class given is in vivo, adult male Wistar rats. The following applies: for Tmax / k el / half-life: male, Wistar, rat, po; for Tmax / k el / half-life / parent compound in urine: 300 mg/kg; for parent compound in urine: urine samples with and without enzyme hydrolysis, single oral dose 300 mg/kg. The protocol:
Animals were individually housed in acrylic metabolism cages for the collection of urine for 8:16 h cycles (inside and outside the cage) for their adaptation during 8 d before treatment. Animals were orally administered with a single dose of temephos (300 mg/kg) emulsified with saline solution (0.9% NaCl). Urine was collected at intervals of 0–8, 8–16, 16–24, 24–48, 60–72, 84–96, 108–120, 132–144, 156–168, 228–240, and 324–336 h. Urine samples were collected and immediately centrifuged at 1600× g for 5 min at 4 °C (Eppendorf 5804R, Hamburg, Germany) and stored at −20 °C until processed for analysis.
Temephos urinary metabolites were enzymatically deconjugated, according to Cruz-Hurtado et al., with some modifications. Briefly, 200 µL of urine and 2000 IU of β-glucuronidase/sulfatase were added to a 0.5 M sodium acetate buffer at pH 5 to reach a final volume of 1 mL. The mixture was incubated at 50 °C in a water bath for an hour. To determine the optimal concentration of deconjugated temephos metabolites in the enzymatic hydrolysis assay, the concentration of β-glucuronidase/sulfatase was assessed from 250 to 4000 IU/mL. The enzymatic reaction was stopped by adding 10 mL of methylene chloride and cooling at room temperature; the mixture was vortexed for 1 min and then centrifuged at 1600× g for 15 min at room temperature. The organic phase was collected, and another residue extraction was performed using 10 mL of diethyl ether. Both supernatants were pooled and dried using anhydrous sodium sulfate. The solvent evaporated under a nitrogen current. The extracts were stored at −20 °C until analysis by HPLC-DAD. Extracts were dissolved in 200 µL of acetonitrile immediately before analysis. Urinary levels of temephos metabolites were adjusted by creatinine, which was determined using a commercial kit from Randox (CR510, Randox Laboratories Ltd., Crumlin, UK).
Temephos and its metabolites were analyzed by injecting urinary extracts into a liquid chromatograph equipped with a quaternary pump, autosampler, degasser, and UV-Vis Diode-Array detector (Agilent 1200, Agilent Technologies, Palo Alto, CA, USA). A ZORBAX Eclipse XDB C-18 column (4.6 × 150 mm, 5 µm) was used (Agilent Technologies, Deerfield, IL, USA). The detector wavelength was set at 254 nm, the reference wavelength was 550 nm, and the mobile phase was modified from Verdín-Betancourt et al.; it consisted of methanol (A), acetonitrile (B), and water (C), with initial solvent conditions of 27% A, 8% B, and 65% C at a rate of 1 mL/min at 25 °C. After injecting the sample (with different volumes), a 2.5 min linear gradient change was applied to achieve 23.5% A, 12.5% B, and 64% C, which was maintained for 1 min, followed by a second 2.5 min linear gradient change to 18% A, 18% B, and 64% C. Afterwards, another 4 min linear gradient change was applied to reach 20% A, 30% B, and 50% C. This condition was maintained for 2 min. Then, a fourth gradient change was applied, achieving 70% A, 25% B, and 5% C. In the end, the initial conditions were re-established to 27% A, 8% B, and 65% C. The column was equilibrated for 2 min before the next injection. The identity of temephos and its metabolites were confirmed by their retention time (tret) and UV spectra of standards. The concentrations of temephos, TDP, TDP-SO, and BPS were determined using calibration graphs of each compound. The concentration of the non-identified metabolite (NIM) was estimated using the Tem-dox-SO calibration graph due to their similarity in the UV spectrum and tret.
The urinary elimination constant (KElim-U) to determine the half-life of elimination (t1/2 Elim-U) for TDP, BPS, and NIMs was estimated from the slope of the curves in the Rate of Excretion plots (log-linear Rate of excretion (ΔU/Δt) versus mid-point time). […]

Setting [3] is: urine, male adult rats, single oral dose of temephos 300 mg/kg.
[4] abbreviates: urine, urine, male adult rats, single oral dose of temephos 300 mg/kg, read-out: KElim-U 2nd Phase (converted).
Where [5] appears, read: urine, urine, male adult rats, single oral dose of temephos 300 mg/kg, read-out: t1/2 Elim-U 2nd Phase (converted).
The mark [6] stands for this setting: urine, rats, single oral dose of temephos 300 mg/kg.

For orientation: Tmax means the time from dosing to the highest level. `O=S(=O)(c1ccc(O)cc1)c1ccc(O)cc1` [BPS, 4,4′-sulfonyldiphenol]: the “increase of level in urine extracts after enzyme hydrolysis” value in series [1] is reported as “about 2 fold”. In series [2] (setting [3]), the Tmax amounted to 9 ± 6 h, the “AUC0–∞” value amounted to 2455 ± 974 nmol-h/mg Creatinine and the Cmax-U came to 41 ± 16 nmol/mg Creatinine. Also, in series [2] (setting [4]), the k el was 1.09e-05 s⁻¹. Moreover, the half-life in series [2] (setting [5]) is 17.7 h. Further, the half-life in series [2] (urine, urine, rats, single oral dose of temephos 300 mg/kg, read-out: t1/2 Elim-U (monophasic decline, one-compartment model) (converted)) is 17.7 h. In addition, in series [2] (setting [6]), the “time after which detection in urine was difficult” value is recorded as 48 h and the “time detected in urine after dosing” value is recorded as 40 h.
Regarding `Oc1ccc(Sc2ccc(O)cc2)cc1` [TDP, 4,4′-thiodiphenol], the “increase of level in urine extracts after enzyme hydrolysis” value in series [1] is “more than 60 fold”. In series [2] (setting [3]), the time of peak concentration (Tmax) worked out at 9 h; the “AUC0–∞” value is on record as 297,540 ± 76,013 nmol-h/mg Creatinine; the Cmax-U is 366 nmol/mg Creatinine and 366 ± 115 nmol/mg Creatinine; the tmax-U is 10 ± 4 h. The k el in series [2] (urine, urine, male adult rats, single oral dose of temephos 300 mg/kg, read-out: KElim-U 1st Phase (converted)) was 6.93e-06 s⁻¹. In series [2] (setting [4]), the k el is 7.08e-07 s⁻¹. In addition, the half-life in series [2] (urine, urine, male adult rats, single oral dose of temephos 300 mg/kg, read-out: t1/2 Elim-U 1st Phase (converted)) was 27.8 h. For the same molecule, the half-life in series [2] (setting [5]) was 272 h. Further, in series [2] (setting [6]), the “Cmax fold higher than that of BPS” value is recorded as 8.9 fold, the “Cmax fold higher than that of NIMs” value turned out to be 4.2 fold and the “time detected in urine after dosing” value was “up to 320 h”.
Take `COP(=S)(OC)Oc1ccc(Sc2ccc(OP(=S)(OC)OC)cc2)cc1` [Temephos, temephos]: the entries for the “parent compound in urine” value in series [2] and in series [2] (listed as temephos) were “practically undetectable” and “only traces”, respectively.
